What was measured:
[1] = system: Human Rhinovirus 1B (HRV1B); assay: H1-HeLa HRV-CTG 384-well assay, HRV1B, Example X; assay type: cell-based; conditions: Rhinovirus A, 96 h; H1-HeLa cells, HRV1B MOI 0.5, 4 days, Celltiter-Glo; read-out: EC50 H1-HeLa_HRV 1B_HRV-CTG 384-well Assay (per Ex. X)
Text: (§1) Example X: H1-HeLa HRV-CTG 384-Well Assay
(§2) H1-Hela cell line (ATCC, Manassas, VA, Cat #CRL-1958) was maintained in Dulbecco's […] (DMEM) (Corning, New York, NY, Cat #15-018CM) supplemented with 10% fetal bovine serum (FBS) (Hyclone, Logan, UT, Cat #SH30071-03), and 1× Penicillin-Streptomycin-L-Glutamine (Corning, New York, NY, Cat #30-009-CI). Cells were passaged 2 times per week to maintain sub-confluent densities and were used for experiments at passage 5-30. The Human Rhinovirus 1B (HRV1B) (ATCC, Manassas, VA, Cat #VR-1645), Human Rhinovirus 14 (HRV14) (ATCC, Manassas, VA, Cat #VR-284), and Human Rhinovirus 16 (HRV16) (ATCC, Manassas, VA, Cat #BR-283) was obtained through ATCC. Viral infection was monitored by determining viability of H1-HeLa cells as described below.
(§3) Test molecules are prepared in 100% DMSO in 384-well polypropylene plates (Greiner, Monroe, NC, Cat #784201) with 8 compounds per plate in grouped replicates of 4 at 10 serially diluted concentrations (1:3). The serially diluted compounds were transferred to low dead volume Echo plates (Labcyte, Sunnyvale, CA, Cat #LP-0200).
(§4) The test compounds were spotted to 384-well assay plates (Greiner, Monroe, NC, Cat #781091) at 200 nL per well using an Echo acoustic dispenser (Labcyte, Sunnyvale, CA). H1-HeLa cells were harvested and suspended in DMEM (supplemented with 2% FBS and 1× Penicillin-Streptomycin-L-Glutamine) and seeded to the pre-spotted assay plates at 5,000 cells per well in 30 μL. HRV1B, HRV14, and HRV16 was diluted in DMEM (supplemented with 2% FBS and 1× Penicillin-Streptomycin-L-Glutamine) at 97.1 million Infectious Units (IU) per mL, 151 million IU per mL and 221 million IU per mL respectively. 10 μL of virus per well was added to the assay plates containing cells and compounds, for an MOI of 0.5, 1.0, and 0.25 respectively. The assay plates were incubated for 4 days at 37° C. and 5% CO2. At the end of incubation, Celltiter-Glo (Promega, Madison, WI, Cat #G7573) was prepared. The assay plates and Celltiter-Glo reagent were equilibrated to room temperature for at least 15 minutes. 40 μL per well of Celltiter-Glo reagent was added and the plates were incubated at room temperature for 15 minutes before reading the luminescence signal on an EnVision multimode plate reader (Perkin Elmer, Waltham, MA). Rupintrivir was used as positive control and DMSO was used as negative control. Values were normalized to the positive and negative controls (as 0% and 100% replication, respectively) and data was fitted using non-linear regression analysis by Gilead's dose response tool. The EC50 value for each compound was defined as the concentration reducing viral replication by 50%.

[2] = GI S9 stability, human, Example Y; assay type: in vitro ADME; conditions: pooled intestinal S9 fractions; human intestinal S9, 1.0 mg/mL protein, 2 μM compound, pH 7.4; read-out: GIS9 Human T½ (per Ex. Y)
Method: (§5) Example Y: GI S9 Stability Data
(§6) Stock solutions of test compounds in dimethyl sulfoxide (DMSO) having a final concentration of 10 mM were prepared and used in all experiments. Sekisui XenoTech (Kansas City, KS) provided pooled intestinal S9 fractions. All other chemicals were purchased from Sigma-Aldrich (St. Louis, MO) or VWR (West Chester, PA). Internal Standard/Quench (IS/Q) used to stop reactions was 100 nM labetalol in (by volume) methanol (10%) and acetonitrile (90%).
(§7) Stability in Intestinal S9 Fractions: Duplicate aliquots of test compound or positive control substrate were added to S9 stock diluted with phosphate buffered saline (137 mM NaCl, 2.7 mM KCl, 10 mM phosphate buffer), pH 7.4, to obtain a protein concentration of 1.0 mg/mL. The metabolic reactions were initiated by the addition of the substrates to the S9 reaction mixture to a final concentration of 2 μM. At 0, 10, 20, 30, 60 and 120 min, 25 μL aliquots of the reaction mixture were transferred to plates containing 225 μl of IS/Q solution. After quenching, the plates were centrifuged at 3000×g for 30 minutes. 150 μL aliquots of each supernatant were dried down then reconstituted with 300 μL water. Aliquots (10 μL) of the prepared samples were analyzed on a Thermo Q-Exactive mass spectrometer as described below.
(§8) Liquid Chromatography—Mass Spectrometry: Quantification of test compounds and control substrate was performed by analyte/internal standard peak area ratio (PAR) values measured on a Thermo Q-Exactive mass spectrometer coupled to a Dionex UltiMate 3000 HPLC with a Leap Technologies HTC PAL autosampler. The column used for analysis was a Waters Acquity BEH C18 (1.7 μm particle size, 2.1×50 mm). Mobile phase A consisted of 0.1% (v/v) formic acid in water. Mobile phase B consisted of 0.1% (v/v) formic acid in acetonitrile. Elution of analytes was achieved by a series of linear gradients varying the proportions of A and B. The mass spectrometer was calibrated on a weekly basis and mass tolerance of 5 ppm was used.
(§9) Metabolic stabilities in S9 fractions were determined by measuring the rates of disappearance of test compound and positive control substrate.
(§10) Data (% of substrate remaining) were plotted on a semi-log scale and fitted using an exponential decline model:
(§11) Ct=C0×e^−ln2/T1/2×t • Where Ct—% of substrate remaining at time=t; C0—% of substrate remaining at time=0; t—time; T1/2—half-life. • The Half-life (T1/2) is determined by the following equation: […]
(§12) Assuming a first-order reaction, the slope (k) is extrapolated from the aforementioned plotted data.

[3] = GI S9 stability, rat, Example Y; assay type: in vitro ADME; conditions: pooled intestinal S9 fractions; rat intestinal S9, 1.0 mg/mL protein, 2 μM compound, pH 7.4; read-out: GIS9 Rat T½ (per Ex. Y)
Method: as §5, §6, §7, §8, §9, §10, §11, §12

[4] = system: Human Rhinovirus 14 (HRV14); assay: H1-HeLa HRV-CTG 384-well assay, HRV14, Example X; assay type: cell-based; conditions: Rhinovirus B, 96 h; H1-HeLa cells, HRV14 MOI 1.0, 4 days, Celltiter-Glo; read-out: EC50 H1-HeLa_HRV 14_HRV-CTG 384-well Assay (per Ex. X)
Text: as §1, §2, §3, §4

[5] = system: Human Rhinovirus 16 (HRV16); assay: H1-HeLa HRV-CTG 384-well assay, HRV16, Example X; assay type: cell-based; conditions: Rhinovirus A, 96 h; H1-HeLa cells, HRV16 MOI 0.25, 4 days, Celltiter-Glo; read-out: EC50 H1-HeLa_HRV 16_HRV-CTG 384-well Assay (per Ex. X)
Text: as §1, §2, §3, §4

| Structure (SMILES) | EC50 [1] [µM] | half-life at 2 μM [2] [min] | half-life at 2 μM [3] [min] | EC50 [4] [µM] | EC50 [5] [µM] |
| --- | --- | --- | --- | --- | --- |
| N#C[C@]1(COC(=O)OC2CCCC2)O[C@@H](c2ccc3c(N)ncnn23)[C@H](O)[C@@H]1O [Compound 1, ((2R,3S,4R,5S)-5-(4-aminopyrrolo[2,1-f][1,2,4]triazin-7-yl)-2-cyano-3,4-dihydroxytetrahydrofuran-2-yl)methyl cyclopentyl carbonate] | 8.65 | 31 | 6 | 19.1 | 31.2 |
| CC(C)(C)COC(=O)OC[C@@]1(C#N)O[C@@H](c2ccc3c(N)ncnn23)[C@H](O)[C@@H]1O [Compound 2, ((2R,3S,4R,5S)-5-(4-aminopyrrolo[2,1-f][1,2,4]triazin-7-yl)-2-cyano-3,4-dihydroxytetrahydrofuran-2-yl)methyl neopentyl carbonate] | 7 | 23 | 6 | 7.66 | 9.74 |
| CC[C@H](C)OC(=O)OC[C@@]1(C#N)O[C@@H](c2ccc3c(N)ncnn23)[C@H](O)[C@@H]1O [Compound 4, ((2R,3S,4R,5S)-5-(4-aminopyrrolo[2,1-f][1,2,4]triazin-7-yl)-2-cyano-3,4-dihydroxytetrahydrofuran-2-yl)methyl ((S)-sec-butyl) carbonate] | 11.2 | 65 | 10 | 22.2 | 38.6 |
| N#C[C@]1(COC(=O)OCCc2ccccc2)O[C@@H](c2ccc3c(N)ncnn23)[C@H](O)[C@@H]1O [Compound 5, ((2R,3S,4R,5S)-5-(4-aminopyrrolo[2,1-f][1,2,4]triazin-7-yl)-2-cyano-3,4-dihydroxytetrahydrofuran-2-yl)methyl phenethyl carbonate] | 3.35 | 44 | 4 | 9.75 | 11.2 |
| COC(=O)OC[C@@]1(C#N)O[C@@H](c2ccc3c(N)ncnn23)[C@H](O)[C@@H]1O [Compound 6, ((2R,3S,4R,5S)-5-(4-aminopyrrolo[2,1-f][1,2,4]triazin-7-yl)-2-cyano-3,4-dihydroxytetrahydrofuran-2-yl)methyl methyl carbonate] | 8.91 | 201 | 37 | 15.2 | 13.7 |
| CC(C)CCOC(=O)OC[C@@]1(C#N)O[C@@H](c2ccc3c(N)ncnn23)[C@H](O)[C@@H]1O [Compound 7, ((2R,3S,4R,5S)-5-(4-aminopyrrolo[2,1-f][1,2,4]triazin-7-yl)-2-cyano-3,4-dihydroxytetrahydrofuran-2-yl)methyl isopentyl carbonate] | 2.81 | 20 | 3 | 7.31 | 9.13 |
| CC(C)COC(=O)OC[C@@]1(C#N)O[C@@H](c2ccc3c(N)ncnn23)[C@H](O)[C@@H]1O [Compound 8, ((2R,3S,4R,5S)-5-(4-aminopyrrolo[2,1-f][1,2,4]triazin-7-yl)-2-cyano-3,4-dihydroxytetrahydrofuran-2-yl)methyl isobutyl carbonate] | 5.16 | 29 | 7 | 7.6 | 9.82 |
| CCCOC(=O)OC[C@@]1(C#N)O[C@@H](c2ccc3c(N)ncnn23)[C@H](O)[C@@H]1O [Compound 9, ((2R,3S,4R,5S)-5-(4-aminopyrrolo[2,1-f][1,2,4]triazin-7-yl)-2-cyano-3,4-dihydroxytetrahydrofuran-2-yl)methyl propyl carbonate] | 7.57 | 29 | 8 | 14.7 | 10.9 |
| CC[C@@H](C)OC(=O)OC[C@@]1(C#N)O[C@@H](c2ccc3c(N)ncnn23)[C@H](O)[C@@H]1O [Compound 10, ((2R,3S,4R,5S)-5-(4-aminopyrrolo[2,1-f][1,2,4]triazin-7-yl)-2-cyano-3,4-dihydroxytetrahydrofuran-2-yl)methyl ((R)-sec-butyl) carbonate] | 18.1 | 104 | 13 | 35.7 | 36.7 |
| CC(C)OC(=O)OC[C@@]1(C#N)O[C@@H](c2ccc3c(N)ncnn23)[C@H](O)[C@@H]1O [Compound 11, ((2R,3S,4R,5S)-5-(4-aminopyrrolo[2,1-f][1,2,4]triazin-7-yl)-2-cyano-3,4-dihydroxytetrahydrofuran-2-yl)methyl isopropyl carbonate] | 12.2 | 104 | 14 | 31.1 | 37.4 |
| N#C[C@]1(COC(=O)OC2CCOCC2)O[C@@H](c2ccc3c(N)ncnn23)[C@H](O)[C@@H]1O [Compound 12, ((2R,3S,4R,5S)-5-(4-aminopyrrolo[2,1-f][1,2,4]triazin-7-yl)-2-cyano-3,4-dihydroxytetrahydrofuran-2-yl)methyl (tetrahydro-2H-pyran-4-yl) carbonate] | 10 | 789 | 58 | 27.2 | 30.3 |

Source: patent US20230382940A1, “ANTIVIRAL COMPOUNDS AND METHODS OF MAKING AND USING THE SAME” (Gilead Sciences, Inc., priority 2022, published 2023)
